Assay results reported in the supplement of paper PMC11208160.

assay: recombinant UMI read abundance after kanamycin selection (control-corrected) (log10(CPM+1)); higher = more efficient recombination; extreme values may be limits of the assay; sequences stand for … in AGTGCAGAGAAAATCGGCCAGTTTTCTCTGCCTGCAGTCCGCATGCCGTGGGACCCCTTGGGTTCTAACCTGTTGCCTAGATTTATGCAGCGGACTGCCTTTCTCCCAAAGTGATAAACCGG…AGGTTGGTTTCACT; site = the 11-nt donor
Method: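 Pooled E. coli donor-specificity screen for the IS621 bridge recombinase. Each library member carries a reprogrammed 11-nt donor and a full-length LE bridge RNA expressed in cis from the natural promoter, with a paired donor-binding loop (8-nt LDG + 4-nt RDG) and a target-binding loop fixed to T5. It is co-electroporated with a T5 target plasmid; recombinase is induced with 0.07 mM IPTG and recombinants are selected on kanamycin. UMIs are counted as CPM, averaged over two biological replicates and corrected by the unselected control. Molecule = full bridge RNA written as DNA, built from the T5 scaffold: LDG = donor specificity nt 1-8, RDG = reverse complement of nt 8-11.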
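Further: IS621 bridge recombinase in Escherichia coli cells against a fixed T5 target plasmid.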

Sequence | recombinant UMI read abundance (log10)
AACTAAGCATGGACCGGTTTTCCCGGTAATCCGTATTTGGT (site AACTAAGCTAC) | 1.25
AACTAGACATGGACCGGTTTTCCCGGTAATCCGTATTTGGG (site AACTAGACTCC) | 0.0148
AACTAGACATGGACCGGTTTTCCCGGTAATCCGTATTTGGG (site ACCTAGACTCC) | 0.0296
AACTAGACATGGACCGGTTTTCCCGGTAATCCGTATTTGGG (site AGCTAGACTCC) | 0.0187
AACTAGACATGGACCGGTTTTCCCGGTAATCCGTATTTGGG (site ATCTAGACTCC) | 0.0377
AACTAGACATGGACCGGTTTTCCCGGTAATCCGTATTTGGT (site AACTAGACTAC) | 0.776
AACTATTCATGGACCGGTTTTCCCGGTAATCCGTATTTGTC (site AACTATTCTGA) | 0.671
AACTCTACATGGACCGGTTTTCCCGGTAATCCGTATTTGAT (site AACTCTACTAT) | 0.82
AACTGTCCATGGACCGGTTTTCCCGGTAATCCGTATTTGAT (site AACAGTCCTAT) | 0.00914
AACTGTCCATGGACCGGTTTTCCCGGTAATCCGTATTTGAT (site AACCGTCCTAT) | 0.423
AACTGTCCATGGACCGGTTTTCCCGGTAATCCGTATTTGAT (site AACGGTCCTAT) | 0.0127
AACTGTCCATGGACCGGTTTTCCCGGTAATCCGTATTTGAT (site AACTGTCCTAT) | 0.173
AAGAACACATGGACCGGTTTTCCCGGTAATCCGTATTTGAT (site AAGAACACTAT) | 2.22
AAGAAGACATGGACCGGTTTTCCCGGTAATCCGTATTTGCA (site AAGAAGACTTG) | 2.73
AAGAAGACATGGACCGGTTTTCCCGGTAATCCGTATTTGCA (site ACGAAGACTTG) | 1.66
AAGAAGACATGGACCGGTTTTCCCGGTAATCCGTATTTGCA (site AGGAAGACTTG) | 2.2
AAGAAGACATGGACCGGTTTTCCCGGTAATCCGTATTTGCA (site ATGAAGACTTG) | 1.95
AAGAATACATGGACCGGTTTTCCCGGTAATCCGTATTTGCA (site AAGAATACTTG) | 1.67
AAGAATACATGGACCGGTTTTCCCGGTAATCCGTATTTGCA (site CAGAATACTTG) | 1.37
AAGAATACATGGACCGGTTTTCCCGGTAATCCGTATTTGCA (site GAGAATACTTG) | 0
AAGAATACATGGACCGGTTTTCCCGGTAATCCGTATTTGCA (site TAGAATACTTG) | 1.7
AAGACGCCATGGACCGGTTTTCCCGGTAATCCGTATTTGAT (site AAGACGCCTAT) | 0.386
AAGACTACATGGACCGGTTTTCCCGGTAATCCGTATTTGAC (site AAGACTACTGT) | 2.69
AAGACTACATGGACCGGTTTTCCCGGTAATCCGTATTTGAC (site ACGACTACTGT) | 0.383

Sequence | recombinant UMI read abundance (log10)
AAGACTACATGGACCGGTTTTCCCGGTAATCCGTATTTGAC (site AGGACTACTGT) | 1.33
AAGACTACATGGACCGGTTTTCCCGGTAATCCGTATTTGAC (site ATGACTACTGT) | 1.25
AAGATTTCATGGACCGGTTTTCCCGGTAATCCGTATTTGGA (site AAGATTTCTTC) | 2.1
AAGCACGCATGGACCGGTTTTCCCGGTAATCCGTATTTGTG (site AAGCACGCTCA) | 1.42
AAGCACGCATGGACCGGTTTTCCCGGTAATCCGTATTTGTG (site AAGCACGCTCC) | 0
AAGCACGCATGGACCGGTTTTCCCGGTAATCCGTATTTGTG (site AAGCACGCTCG) | 1.22
AAGCACGCATGGACCGGTTTTCCCGGTAATCCGTATTTGTG (site AAGCACGCTCT) | 0.906
AAGCAGGCATGGACCGGTTTTCCCGGTAATCCGTATTTGGG (site AAGCAAGCTCC) | 0.00504
AAGCAGGCATGGACCGGTTTTCCCGGTAATCCGTATTTGGG (site AAGCACGCTCC) | 0.0214
AAGCAGGCATGGACCGGTTTTCCCGGTAATCCGTATTTGGG (site AAGCAGGCTCC) | 0.367
AAGCAGGCATGGACCGGTTTTCCCGGTAATCCGTATTTGGG (site AAGCATGCTCC) | 0.00333
AAGCCAGCATGGACCGGTTTTCCCGGTAATCCGTATTTGGG (site AAGCCAGCTCC) | 0.00996
AAGCGGGCATGGACCGGTTTTCCCGGTAATCCGTATTTGAC (site AAGCGGGCTGT) | 1.62
AAGCTGTCATGGACCGGTTTTCCCGGTAATCCGTATTTGAT (site AAGCTGTCTAT) | 0.353
AAGGACACATGGACCGGTTTTCCCGGTAATCCGTATTTGAG (site AAGGACACTCT) | 2.09
AAGGACGCATGGACCGGTTTTCCCGGTAATCCGTATTTGGG (site AAGAACGCTCC) | 0.307
AAGGACGCATGGACCGGTTTTCCCGGTAATCCGTATTTGGG (site AAGCACGCTCC) | 0.0166
AAGGACGCATGGACCGGTTTTCCCGGTAATCCGTATTTGGG (site AAGGACGCTCC) | 0.789
AAGGACGCATGGACCGGTTTTCCCGGTAATCCGTATTTGGG (site AAGTACGCTCC) | 0.0226
AAGGATCCATGGACCGGTTTTCCCGGTAATCCGTATTTGGT (site AAGGATCCTAC) | 0.373
AAGGGTCCATGGACCGGTTTTCCCGGTAATCCGTATTTGAT (site AAGGGTCCTAT) | 0.0248
AAGGTCACATGGACCGGTTTTCCCGGTAATCCGTATTTGAG (site AAGGTCACTCT) | 1.55
AAGGTCACATGGACCGGTTTTCCCGGTAATCCGTATTTGGA (site AAGGTCACTTC) | 1.14
AAGGTGTCATGGACCGGTTTTCCCGGTAATCCGTATTTGAC (site AAAGTGTCTGT) | 1.13

Sequence | recombinant UMI read abundance (log10)
AAGGTGTCATGGACCGGTTTTCCCGGTAATCCGTATTTGAC (site AACGTGTCTGT) | 0.678
AAGGTGTCATGGACCGGTTTTCCCGGTAATCCGTATTTGAC (site AAGGTGTCTGT) | 3.31
AAGGTGTCATGGACCGGTTTTCCCGGTAATCCGTATTTGAC (site AATGTGTCTGT) | 0
AAGTAATCATGGACCGGTTTTCCCGGTAATCCGTATTTGAG (site AAGTAATCTCT) | 2.78
AAGTAGGCATGGACCGGTTTTCCCGGTAATCCGTATTTGGC (site AAGTAGGCTGC) | 2.2
AAGTAGGCATGGACCGGTTTTCCCGGTAATCCGTATTTGGC (site ACGTAGGCTGC) | 1.04
AAGTAGGCATGGACCGGTTTTCCCGGTAATCCGTATTTGGC (site AGGTAGGCTGC) | 0.265
AAGTAGGCATGGACCGGTTTTCCCGGTAATCCGTATTTGGC (site ATGTAGGCTGC) | 1.41
AAGTCGCCATGGACCGGTTTTCCCGGTAATCCGTATTTGAC (site AAGTCGCCTGT) | 0
AAGTGCACATGGACCGGTTTTCCCGGTAATCCGTATTTGGT (site AAGTGCACTAC) | 0.762
AAGTGTACATGGACCGGTTTTCCCGGTAATCCGTATTTGTG (site AAGTGTACTCA) | 0.962
AATAAACCATGGACCGGTTTTCCCGGTAATCCGTATTTGCC (site AATAAACCTGG) | 0
AATAAACCATGGACCGGTTTTCCCGGTAATCCGTATTTGTG (site AATAAACCTCA) | 0.00291
AATAATTCATGGACCGGTTTTCCCGGTAATCCGTATTTGAT (site AATAATTCTAT) | 0.955
AATAGCACATGGACCGGTTTTCCCGGTAATCCGTATTTGGC (site AATAGCACTGC) | 2.04
AATATGTCATGGACCGGTTTTCCCGGTAATCCGTATTTGAC (site AATATGTCTGT) | 0.953
AATATGTCATGGACCGGTTTTCCCGGTAATCCGTATTTGAC (site AATCTGTCTGT) | 0
AATATGTCATGGACCGGTTTTCCCGGTAATCCGTATTTGAC (site AATGTGTCTGT) | 0
AATATGTCATGGACCGGTTTTCCCGGTAATCCGTATTTGAC (site AATTTGTCTGT) | 0
AATCCCACATGGACCGGTTTTCCCGGTAATCCGTATTTGCT (site AATCCCACTAG) | 1.77
AATCCTCCATGGACCGGTTTTCCCGGTAATCCGTATTTGAT (site AATCCTCCTAT) | 0.344
AATCGAGCATGGACCGGTTTTCCCGGTAATCCGTATTTGGA (site AATCGAGCTTC) | 0.474
AATCTAACATGGACCGGTTTTCCCGGTAATCCGTATTTGCT (site AATATAACTAG) | 0
AATCTAACATGGACCGGTTTTCCCGGTAATCCGTATTTGCT (site AATCTAACTAG) | 0
